Reference: US12187705B2, “Heteroaryl-triazole and heteroaryl-tetrazole compounds as pesticides” (Bayer Aktiengesellschaft, priority 2018, dated 2025)

Tests used:
Format in all cases: in vivo
[1] = test system: Anopheles funestus strain FUMOZ-R; assay: Anopheles funestus test (ANPHFU surface treatment & contact assay); settings: 24 hours after contact, read-out: efficacy (mortality); for mortality at 4 mg/m2: surface concentration 4 mg/m^2, 30 minutes exposure; for mortality at 20 mg/m2: surface concentration 20 mg/m^2, 30 minutes exposure
Procedure: Anopheles funestus Test (ANPHFU Surface Treatment & Contact Assay)
(§1) Solvent: Aceton+2000 ppm rapeseed oil methyl ester (RME)
In order to produce a sufficient, active ingredient containing solution it is necessary to solve the test-compound in the solvent-mix (Acetone at 2 mg/ml/RME 2000 ppm). This solution is pipetted onto a glazed tile and after evaporation of the Acetone, adult mosquitoes of the species Anopheles funestus strain FUMOZ-R (Hunt et al., Med Vet Entomol. 2005 September; 19(3):271-5) are placed onto the dried surface. The exposure time is 30 minutes.
(§2) Mortality in percent (%) is determined 24 hours after contact to the treated surface. 100% mortality means that all test-insects are dead, whereas 0% means that not a single insect died.

Myzus persicae [2] = assay: Myzus persicae oral test; settings: 120 h
Procedure: To produce a suitable preparation of active compound, 1 part by weight of active compound is mixed with the stated amount of solvent, and the concentrate is diluted with water to the desired concentration.
50 μl compound solution is filled in microtiter plates and 150 μl IPL41 insect medium (33%+15% sugar) is added to obtain a total volume of 200 μl per well. Afterwards the plates are sealed with parafilm through which a mixed population of the green peach aphid (Myzus persicae) can suck on the compound preparation.
(§3) After 5 days mortality in % is determined. 100% means all aphids have been killed and 0% means none of the aphids have been killed.

[3] = test system: Culex quinquefasciatus strain P00; assay: Culex quinquefasciatus test (CULXFA surface treatment & contact assay); settings: 24 hours after contact, read-out: efficacy (mortality); for mortality at 4 mg/m2: surface concentration 4 mg/m^2, 30 minutes exposure; for mortality at 20 mg/m2: surface concentration 20 mg/m^2, 30 minutes exposure
Procedure: Culex quinquefasciatus Test (CULXFA Surface Treatment & Contact Assay)
as §1
In order to produce a sufficient, active ingredient containing solution it is necessary to solve the test-compound in the solvent-mix (Acetone at 2 mg/ml/RME 2000 ppm). This solution is pipetted onto a glazed tile and after evaporation of the Acetone, adult mosquitoes of the species Culex quinquefasciatus strain P00 are placed onto the dried surface. The exposure time is 30 minutes.
as §2

[4] = test system: Aedes aegypti strain MONHEIM; assay: Aedes aegypti test (AEDSAE surface treatment & contact assay); settings: 24 hours after contact, read-out: efficacy (mortality); for mortality at 4 mg/m2: surface concentration 4 mg/m^2, 30 minutes exposure; for mortality at 20 mg/m2: surface concentration 20 mg/m^2, 30 minutes exposure
Procedure: Aedes aegypti Test (AEDSAE Surface Treatment & Contact Assay)
as §1
In order to produce a sufficient, active ingredient containing solution it is necessary to solve the test-compound in the solvent-mix (Acetone at 2 mg/ml/RME 2000 ppm). This solution is pipetted onto a glazed tile and after evaporation of the Acetone, adult mosquitoes of the species Aedes aegypti strain MONHEIM are placed onto the dried surface. The exposure time is 30 minutes.
as §2

Nezara viridula = Nezara viridula spray test; settings: in Hordeum vulgare, 96 h
Procedure: Nezara viridula—Spray Test
(§4) To produce a suitable preparation of active compound, 1 part by weight of active compound is mixed with the stated amount of solvent, and the concentrate is diluted with water, containing an emulsifier concentration of 1000 ppm, to the desired concentration. Further test concentrations are prepared by dilution with emulsifier containing water.
Barley plants (Hordeum vulgare) infested with larvae of the southern green stink bug (Nezara viridula) are sprayed with a test solution containing the desired concentration of the active ingredient.
After 4 days mortality in % is determined. 100% means all the stink bugs have been killed; 0% means none of the stink bugs have been killed.

Diabrotica balteata = Diabrotica balteata spray test; settings: Diabrotica balteata, 168 h; 160 μg/well, wheat seeds, after 7 days; read-out: efficacy (seedlings grown)
Procedure: Diabrotica balteata—Spray Test
as §4
Soaked wheat seeds (Triticum aestivum) are placed in a multiple well plate filled with agar and some water and are incubated for 1 day to germinate (5 seeds per well). The germinated wheat seeds are sprayed with a test solution containing the desired concentration of the active ingredient. Afterwards each unit is infected with 10-20 larvae of the banded cucumber beetle (Diabrotica balteata).
After 7 days efficacy in % is determined. 100% means all the seedlings have grown up like in the untreated, uninfected control; 0% means none of the seedlings have grown.

Nilaparvata lugens = Nilaparvata lugens spray test; settings: Nilaparvata lugens, in Oryza sativa, 96 h
Procedure: Nilaparvata lugens—Spray Test
(§5) To produce a suitable preparation of active compound, 1 part by weight of active compound is mixed with the stated amount of solvents and is diluted with water, containing an emulsifier concentration of 1000 ppm, to the desired concentration. Further test concentrations are prepared by dilution with emulsifier containing water.
Rice plants (Oryza sativa) are sprayed with a preparation of the active ingredient of the desired concentration and the plants are infested with the brown planthopper (Nilaparvata lugens).
After 4 days mortality in % is determined. 100% means all planthoppers have been killed and 0% means none of the planthoppers have been killed.

Ctenocephalides felis [5] = assay: Ctenocephalides felis oral test; settings: Ctenocephalides felis, in Bos taurus, po, 48 h
Procedure: Ctenocephalides felis—Oral Test
(§6) Solvent: dimethyl sulfoxide
To produce a suitable preparation of active compound, 10 mg of active compound are dissolved in 0.5 ml solvent, and the concentrate is diluted with cattle blood to the desired concentration.
Approximately 20 adult unfed cat fleas (Ctenocephalides felis) are placed in flea chambers. The blood chamber, sealed with parafilm on the bottom, are filled with cattle blood supplied with compound solution and placed on the gauze covered top of the flea chamber, so that the fleas are able to suck the blood. The blood chamber is heated to 37° C. whereas the flea chamber is kept at room temperature.
After 2 days mortality in % is determined. 100% means all the fleas have been killed; 0% means none of the fleas have been killed.

Boophilus microplus = Boophilus microplus injection test; settings: Rhipicephalus microplus, 168 h, 20 μg/animal, egg deposition after 7 days, read-out: efficacy (infertile eggs)
Procedure: Boophilus microplus—Injection Test
as §6
To produce a suitable preparation of active compound, 10 mg of active compound are dissolved in 0.5 ml solvent, and the concentrate is diluted with solvent to the desired concentration.
Five adult engorged female ticks (Boophilus microplus) are injected with 1 μl compound solution into the abdomen. The ticks are transferred into replica plates and incubated in a climate chamber.
After 7 days egg deposition of fertile eggs is monitored. Eggs where fertility is not visible are stored in a climate chamber till hatching after about 42 days. An efficacy of 100% means all eggs are infertile; 0% means all eggs are fertile.

Myzus persicae [6] = assay: Myzus persicae spray test; settings: in Brassica rapa, foliar, 120 h
Procedure: Myzus persicae—Spray Test
as §5
Chinese cabbage (Brassica pekinensis) leaf disks infected with all instars of the green peach aphid (Myzus persicae), are sprayed with a preparation of the active ingredient of the desired concentration.
as §3

Ctenocephalides felis [7] = assay: Ctenocephalides felis in-vitro contact test adult cat flea; settings: Ctenocephalides felis; 5 μg/cm^2 (=500 g/ha), after 48 hours; read-out: efficacy (fleas dead or moribund)
Procedure: Ctenocephalides felis—In-Vitro Contact Test Adult Cat Flea
9 mg compound is solved in 1 ml acetone and diluted with acetone to the desired concentration. 250 μl of the test solution is filled in 25 ml glass test tubes and homogeneously distributed on the inner walls by rotation and tilting on a shaking device (2 h at 30 rpm). With a compound concentration of 900 ppm, an inner surface of 44.7 cm^2 and a homogeneous distribution, a dose of 5 μg/cm^2 is achieved.
After the solvent has evaporated, each test tube is filled with 5-10 adult cat fleas (Ctenocephalides felis), closed with a perforated lid and incubated in a lying position at room temperature and relative humidity. After 48 hours efficacy is determined. The fleas are patted on the ground of the tubes and are incubated on a heating plate at 45-50° C. for at most 5 minutes. Immotile or uncoordinated moving fleas, which are not able to escape the heat by climbing upwards, are marked as dead or moribund.
An efficacy of 100% means all fleas are dead or moribund; 0% means no fleas are dead or moribund.

Spodoptera frugiperda = Spodoptera frugiperda spray test; settings: in Zea mays, 168 h
Procedure: Spodoptera frugiperda—Spray Test
as §5
Maize (Zea mays) leaf sections are sprayed with a preparation of the active ingredient of the desired concentration. Once dry, the leaf sections are infested with fall armyworm larvae (Spodoptera frugiperda).
After 7 days mortality in % is determined. 100% means all caterpillars have been killed and 0% means none of the caterpillars have been killed.

SMILES | mortality at 4 mg/m2 [1] [%] | mortality at 4 ppm (Myzus persicae [2]) [%] | mortality at 4 mg/m2 [3] [%] | mortality at 20 mg/m2 [3] [%] | mortality at 4 mg/m2 [4] [%] | mortality at 20 mg/m2 [4] [%] | mortality at 500 g/ha (Nezara viridula) [%] | pest or weed control at 160 µg/disc, 160 µg/well (Diabrotica balteata) [%] | mortality at 500 g/ha (Nilaparvata lugens) [%] | mortality at 20 mg/m2 [1] [%] | mortality at 100 ppm (Ctenocephalides felis [5]) [%] | pest or weed control at 0.02 mg (Boophilus microplus) [%] | mortality at 500 g/ha (Myzus persicae [6]) [%] | pest or weed control at 5 µg/cm2, 5 µg/cm2 (Ctenocephalides felis [7]) [%] | mortality at 500 g/ha (Spodoptera frugiperda) [%]
C[C@H](NC(=O)c1cc(Cl)cc(S(=O)(=O)CC(F)(F)F)c1)c1ncnn1-c1ncccn1 [Example I-093, 3-chloro-N-{(1S)-1-[1-(pyrimidin-2-yl)-1H-1,2,4-triazol-5-yl]ethyl}-5-[(2,2,2-trifluoroethyl)sulfonyl]benzamide] | 85 to 100 | 90 | 80 to 100 | 80 to 100 | 80 to 100 | 90 to 100 | 100 | 100 |  |  |  |  |  |  | 
CC(NC(=O)c1cc(Cl)cc(-n2cncn2)c1)c1ncnn1-c1ncccn1 (stereo not drawn) [Example I-049] | 85 to 100 |  |  | 80 to 100 | 80 to 100 | 90 to 100 | 100 | 100 | 100 | 85 to 100 | 100 | 100 |  |  | 
C[C@@H](NC(=O)c1cc(Cl)cc(C(C)(C)C)c1)c1ncnn1-c1ncccn1 [Example I-124] |  |  |  |  |  |  | 100 | 100 |  |  |  |  | 100 |  | 
C[C@@H](NC(=O)c1cc(Cl)cc(S(C)(=O)=O)c1)c1ncnn1-c1ncc(C(F)(F)F)cn1 [Example I-095] |  | 100 |  |  |  |  | 100 | 100 |  |  |  |  | 90 | 100 | 100
Cc1cnc(-n2ncnc2[C@@H](C)NC(=O)c2cc(Cl)cc(S(C)(=O)=O)c2)nc1 [Example I-096] |  | 100 |  |  |  |  | 100 |  |  |  |  |  | 90 |  | 100
CON=C(C)c1cc(Cl)cc(C(=O)N[C@@H](C)c2ncnn2-c2ncccn2)c1 [Example I-057, 3-chloro-5-(N-methoxyethanimidoyl)-N-{(1S)-1-[1-(pyrimidin-2-yl)-1H-1,2,4-triazol-5-yl]ethyl}benzamide] |  | 100 |  | 80 to 100 | 80 to 100 | 90 to 100 | 100 | 80 |  |  | 100 |  | 90 | 100 | 100
C[C@H](NC(=O)c1cc(Cl)cc(C2(C#N)CC2)c1)c1ncnn1-c1ccc(C#N)cn1 [Example I-119, 3-chloro-5-(1-cyanocyclopropyl)-N-{(1S)-1-[1-(5-cyanopyridin-2-yl)-1H-1,2,4-triazol-5-yl]ethyl}benzamide] |  | 100 |  |  |  |  | 100 | 100 |  |  |  |  | 90 |  | 100
CC(c1ncnn1-c1ncccn1)N(CC(F)F)C(=O)c1cc(Cl)cc(S(C)(=O)=O)c1 (stereo not drawn) [Example I-041] | 85 to 100 | 100 | 80 to 100 | 80 to 100 | 80 to 100 | 90 to 100 | 100 | 100 | 100 | 85 to 100 | 100 | 100 |  | 90 | 
Cc1cnc(-n2ncnc2[C@@H](C)NC(=O)c2cc(Cl)cc(S(=O)(=O)C(F)(F)F)c2)nc1 [Example I-099] |  | 100 |  |  |  |  | 100 | 100 |  |  |  |  | 100 |  | 100
C[C@@H](NC(=O)c1csc(Cl)c1)c1ncnn1-c1ccc(C#N)cn1 [Example I-114] |  |  |  |  |  |  |  | 100 |  |  |  |  | 90 |  | 
